Legend:
[1] = Differential Scanning Calorimetry (DSC): amorphous form and glass transition temperature; format: physicochemical; conditions: specific heat as a function of temperature
Procedure: DSC was used to determine glass transition temperatures. This technique provides a measure of the glass transition characteristics of amorphous materials. In addition, the absence of a melting point is indicative of the lack of three dimensional order characteristic of crystalline materials. A Perkin-Elmer™ DSC 7 (Perkin-Elmer Ltd, UK) was used. 1-5 mg samples were examined in sealed, crimped aluminium pans, under an atmosphere of nitrogen. Samples were measured using a TA DSC-2920 instrument (TA Instruments, New Castle, Del.). About 5-10 mg sample was packed into an aluminum DSC pan and gently tapped to get the powder to form a uniform layer on the bottom of the pan (Catalog numbers 900 793.901 for pans and 900 794.901 for lids). The DSC pan was hermetically sealed using a sample encapsulation press (part # 900680.902). Helium is used as the DSC purge gas at 30 ml/min. A Refrigerated Control System (RCS) provides the heat sink for the DSC, with helium as the circuit gas run at ˜110 ml/min. In modulated DSC experiments, the sample was first cooled to about 0° C., held isothermally for 10 minutes, and then heated at 2° C./minute to ˜200° C. The heating rate was modulated by superimposing a sinusoidal heating profile at ±0.318° C./min.

[2] = Powder flowability after exposure to ambient conditions; format: physicochemical
Source text: The particles made by Example 2 were further determined to be advantageous over pure non-crystalline forms. […] Accordingly, the non-crystalline losartan and PVP-VA containing powder formulation has an improved flowability for downstream process such as tablet formation.

CCCCc1nc(Cl)c(CO)n1Cc1ccc(-c2ccccc2-c2nnn[nH]2)cc1.[K] [pure non-crystalline losartan, 2-butyl-4-chloro-1-[p-(o-1H-tetrazol-5-ylphenyl)benzyl]imidazole-5-methanol monopotassium salt]
Tg midpoint [1]: about 51 °C | Tg onset [1]: about 46 °C | powder flowability [2]: sticks and agglomerates

Source: patent US20060160871A1, “Stable non-crystalline formulation comprising losartan” (Nektar Therapeutics, priority 2004, published 2006)
